Key:
Assay in all cases: normalised percent inhibition of luminescence (vs positive and negative controls); higher = stronger inhibition
[1] = test system: Renilla luciferase (RLuc)
Protocol: (§1)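 Concentration-response (>=11 concentrations) of metal salts on purified FLuc, NLuc or RLuc luminescence in screening (SC) or 100 mM HEPES (H) buffer; salt pre-incubated with enzyme 10 min at RT, read 10 min after substrate. Normalised percent inhibition vs plate positive (PTC-124, isradipine, BTS) and DMSO negative controls; triplicate wells.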

[2] = test system: firefly luciferase (FLuc)
Protocol: as §1

[3] = test system: NanoLuc luciferase (NLuc)
Protocol: as §1

O=[N+]([O-])[O-].O=[N+]([O-])[O-].O=[N+]([O-])[O-].[Ga+3] [gallium(III) nitrate]
normalised percent inhibition [%]
Settings	100 mM HEPES buffer	screening conditions buffer
[1], metal salt concentration 0.002 mM	–	-6.33
[1], metal salt concentration 0.005 mM	–	-7.44
[1], metal salt concentration 0.01 mM	–	-4.58
[1], metal salt concentration 0.02 mM	–	-6.17
[1], metal salt concentration 0.05 mM	–	-6.25
[1], metal salt concentration 0.1 mM	–	-7.99
[1], metal salt concentration 0.2 mM	–	-8.55
[1], metal salt concentration 0.5 mM	–	-5.45
[1], metal salt concentration 1 mM	–	-8.55
[1], metal salt concentration 2.5 mM	–	-0.965
[1], metal salt concentration 5 mM	–	71.8
[2], metal salt concentration 0.0001 mM	-32.2	19.5
[2], metal salt concentration 0.00025 mM	-34.5	-10.2
[2], metal salt concentration 0.0005 mM	-31.8	10
[2], metal salt concentration 0.001 mM	-39.5	-11.4
[2], metal salt concentration 0.01 mM	27.3	–
[2], metal salt concentration 0.025 mM	90.2	-13.5
[2], metal salt concentration 0.05 mM	98.3	–
[2], metal salt concentration 0.1 mM	99.28	–
[2], metal salt concentration 0.5 mM	99.8	–
[2], metal salt concentration 1 mM	98.9	–
[2], metal salt concentration 2.5 mM	99.5	–
[2], metal salt concentration 5 mM	100.3	–
[3], metal salt concentration 0.002 mM	–	3.99
[3], metal salt concentration 0.005 mM	–	6.69
[3], metal salt concentration 0.01 mM	–	2.43
[3], metal salt concentration 0.02 mM	–	4.43
[3], metal salt concentration 0.05 mM	–	6.6
[3], metal salt concentration 0.1 mM	–	7.81
[3], metal salt concentration 0.2 mM	–	8.25
[3], metal salt concentration 0.5 mM	–	12.8
[3], metal salt concentration 1 mM	–	35
[3], metal salt concentration 2.5 mM	–	89.2
[3], metal salt concentration 5 mM	–	120

O=[N+]([O-])[O-].[Ag+] [silver nitrate]
normalised percent inhibition [%]
Settings	[1]	[2]	[3]
metal salt concentration 1.56 nM, screening conditions buffer	–	-3.5	–
metal salt concentration 3.13 nM, screening conditions buffer	–	8.07	–
metal salt concentration 6.25 nM, screening conditions buffer	–	-11.6	–
metal salt concentration 12.5 nM, screening conditions buffer	–	2.67	–
metal salt concentration 25 nM, screening conditions buffer	–	-5.14	–
metal salt concentration 50 nM, screening conditions buffer	–	1.37	–
metal salt concentration 0.0001 mM, 100 mM HEPES buffer	2.89	98	1.65
metal salt concentration 0.0001 mM, screening conditions buffer	–	0.486	–
metal salt concentration 0.00025 mM, 100 mM HEPES buffer	-2.96	100.3	-1.44
metal salt concentration 0.00025 mM, screening conditions buffer	–	54.3	–
metal salt concentration 0.0005 mM, 100 mM HEPES buffer	-1.85	99.84	-1.42
metal salt concentration 0.0005 mM, screening conditions buffer	–	100.1	–
metal salt concentration 0.001 mM, 100 mM HEPES buffer	-11.8	100.3	2.97
metal salt concentration 0.001 mM, screening conditions buffer	–	100.19	–
metal salt concentration 0.002 mM, screening conditions buffer	10.7	100.6	20.8
metal salt concentration 0.005 mM, screening conditions buffer	8.28	100.7	80.1
metal salt concentration 0.01 mM, 100 mM HEPES buffer	-3.09	–	–
metal salt concentration 0.01 mM, screening conditions buffer	13	100.4	88
metal salt concentration 0.02 mM, 100 mM HEPES buffer	-4.38	–	–
metal salt concentration 0.02 mM, screening conditions buffer	14.2	100.7	107
metal salt concentration 0.025 mM, 100 mM HEPES buffer	84.8	100.4	99.59
metal salt concentration 0.04 mM, 100 mM HEPES buffer	47.3	–	–
metal salt concentration 0.05 mM, 100 mM HEPES buffer	104	100.3	51.4
metal salt concentration 0.05 mM, screening conditions buffer	38.8	99.8	118
metal salt concentration 0.1 mM, 100 mM HEPES buffer	107	100.6	100.8
metal salt concentration 0.1 mM, screening conditions buffer	81.2	–	119
metal salt concentration 0.2 mM, screening conditions buffer	101	–	133.6
metal salt concentration 0.5 mM, 100 mM HEPES buffer	106	100	101.7
metal salt concentration 0.5 mM, screening conditions buffer	105.9	–	119
metal salt concentration 1 mM, 100 mM HEPES buffer	106	99.8	101.7
metal salt concentration 1 mM, screening conditions buffer	105.9	–	120
metal salt concentration 2.5 mM, 100 mM HEPES buffer	106.7	100.4	101.97
metal salt concentration 2.5 mM, screening conditions buffer	106.2	–	134.8
metal salt concentration 5 mM, 100 mM HEPES buffer	106	100.5	102
metal salt concentration 5 mM, screening conditions buffer	106.1	–	135.3
